Laboratory results: US20250154170A1, “FUSED PYRIMIDINES AS KRAS INHIBITORS” (priority 2022, published 2025)
“And” between values parts separate entries of the source, which are not always exact repeats. Equal values may be shown once.

How the values were obtained:
K-Ras G12D = K-Ras G12D (Homo sapiens, UniProt P01116, G12D); experiment: K-Ras G12D activation by SOS1 (KRAS G12D activation by SOS1cat assay, HTRF); type: biochemical; conditions: mean, SOS1cat mediated loading of GST-KRAS G12D-GDP with fluorescent GTP analogue, read-out: K-Ras G12D activation by SOS1 IC50 - [mol/l] (mean)
Description: (§1) Preparation of test compound dilutions. A 100-fold concentrated solution of the test compound (50 nL) in DMSO was transferred to microtiter test plates (384 or 1,536 wells, Greiner Bio-One, Germany) using either a Hummingbird liquid handler (Digilab, MA, USA) or an Echo acoustic system (Labcyte, CA, USA). Plates were sealed with adhesive foil or heat-sealed and stored at −20 C until use. Serial dilutions of test compounds were prepared in 100% DMSO using a Precision Pipetting System (BioTek, USA).
(§2) Measurement and evaluation of inhibition data, calculation of IC50 values. Homogeneous time-resolved fluorescence (HTRF) was measured with a PHERAstar reader (BMG, Germany) using the HTRF module (excitation: 337 nm; emission 1: 620 nm, emission 2: 665 nm). The ratio of the emissions at 665 and 620 nm was used as the specific signal for further evaluation. The data were normalized using the controls: DMSO=0% inhibition, inhibition control wells with inhibitor control solution=100% inhibition. Compounds were tested in duplicates at up to 11 concentrations (e.g. 20 μM, 5.7 μM, 1.6 μM, 0.47 μM, 0.13 μM, 38 nM, 11 nM, 3.1 nM, 0.89 nM, 0.25 nM and 0.073 nM). IC50 values were calculated using a four-parameter fit, with a commercial software package (Genedata Screener, Switzerland).
(§3) KRAS^G12C activation by SOS1^cat assay (“On-assay”). This assay quantifies SOS1^cat mediated loading of KRAS^G12C-GDP with a fluorescent GTP analogue. Detection of successful loading was achieved by measuring resonance energy transfer from anti-GST-terbium (FRET donor) bound to GST-KRAS^G12C to the loaded fluorescent GTP analogue (FRET acceptor). The fluorescent GTP analogue EDA-GTP-DY-647P1 [2′/3′-O-(2-aminoethyl-carbamoyl)guanosine-5′-triphosphate labelled with DY-647P1 (Dyomics GmbH, Germany)] was synthesized by Jena Bioscience (Germany) and supplied as a 1 mM aqueous solution. A KRAS^G12C working solution was prepared in assay buffer [10 mM HEPES pH 7.4 (AppliChem), 150 mM NaCl (Sigma), 5 mM MgCl2 (Sigma), 1 mM DTT (Thermo Fisher), 0.05% BSA Fraction V pH 7.0 (ICN Biomedicals), 0.0025% (v/v) Igepal (Sigma)] containing GST-KRAS^G12C (final concentration in assay 50 nM) and anti-GST-terbium (Cisbio, France) (final concentration in assay 1 nM). A SOS1^cat working solution was prepared in assay buffer containing SOS1^cat (final concentration 10 nM) and EDA-GTP-DY-647P1 (final concentration 100 nM). An inhibitor control solution was prepared in assay buffer containing EDA-GTP-DY-647P1 (final concentration 100 nM) without SOS1^cat. All steps of the assay were performed at 20° C. A volume of 3 μL of the KRAS^G12C working solution was added to all wells of the test plate using a Multidrop dispenser (Thermo LabSystems). After 15 min, 2 μL of the SOS1^ct working solution was added to all wells, except for the inhibitor control solution wells. After 30 min incubation, HTRF was measured.
(§4) G12D and Wild-type KRAS activation by SOS1cat assays. These assays quantify human SOS1^cat mediated loading of wild-type GST-KRAS^WT-GDP or GST-KRAS^G12D-GDP with a fluorescent GTP analogue. The assay was performed similarly to the KRAS^G12C activation by SOS1^cat assay with the following differences: final concentration of SOS1^cat of 60 nM and final incubation time before measurement of 10 min for KRAS^G12D assay, final concentration of SOS1^cat of 20 nM and final incubation time before measurement of 15 min for wild-type KRAS assay, respectively. GST-KRAS^G12C was replaced by GST-KRAS^WT or GST-KRAS^G12D, respectively, also at 50 nM final concentration.
KRAS^G12D activation by SOS1^cat assay (“On-assay”). This assay quantifies SOS1^cat mediated loading of KRAS^G12D-GDP with a fluorescent GTP analogue. Detection of successful loading was achieved by measuring resonance energy transfer from anti-GST-terbium (FRET donor) bound to GST-KRAS^G12D to the loaded fluorescent GTP analogue (FRET acceptor).

K-Ras-wildtype = K-Ras-wildtype (Homo sapiens, UniProt P01116); experiment: K-Ras-wildtype activation by SOS1 (wild-type KRAS activation by SOS1cat assay, HTRF); type: biochemical; conditions: mean, SOS1cat mediated loading of wild-type GST-KRAS-GDP with fluorescent GTP analogue, read-out: K-Ras-wildtype activation by SOS1 IC50 - [mol/l] (mean)
Description: as §1, §2, §3, §4
Wild-type KRAS activation by SOS1^cat assay. This assay quantifies human SOS1^cat mediated loading of wild-type GST-KRAS-GDP with a fluorescent GTP analogue. The assay was performed similarly to the KRAS^G12D activation by SOS1^cat assay just by replacement of GST-KRAS^G12D by wild-type GST-KRAS while concentrations of all components and incubation times were the same.

K-Ras-wildtype, sequence (P01116 1-188 isoform P01116-2): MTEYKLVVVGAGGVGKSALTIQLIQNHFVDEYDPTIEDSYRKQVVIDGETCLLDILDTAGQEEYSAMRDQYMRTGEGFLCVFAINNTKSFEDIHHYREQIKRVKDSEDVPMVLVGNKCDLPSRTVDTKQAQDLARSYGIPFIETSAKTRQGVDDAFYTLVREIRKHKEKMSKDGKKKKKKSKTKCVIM
K-Ras G12D, sequence (P01116 1-188 isoform P01116-2 G12D): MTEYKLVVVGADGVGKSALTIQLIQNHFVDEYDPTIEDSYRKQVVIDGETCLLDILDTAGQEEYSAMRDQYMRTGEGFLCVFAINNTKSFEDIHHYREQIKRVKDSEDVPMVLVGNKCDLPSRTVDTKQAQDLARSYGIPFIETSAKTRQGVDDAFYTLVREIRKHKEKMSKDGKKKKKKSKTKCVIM

| SMILES | IC50 (K-Ras G12D) | IC50 (K-Ras-wildtype) |
| --- | --- | --- |
| C#Cc1c(F)ccc2cc(O)cc(Oc3nc4c(N5CC6CCC(C5)NC6)nc(OC[C@@]56CCCN5C[C@H](F)C6)nc4s3)c12 (relative stereo) [Example 16, 4-[(7-[(1R*,5R*)-3,6-diazabicyclo[3.2.2]nonan-3-yl]-5-{[(2R,7aS)-2-fluorotetrahydro-1H-pyrrolizin-7a(5H)-yl]methoxy}[1,3]thiazolo[5,4-d]pyrimidin-2-yl)oxy]-5-ethynyl-6-fluoronaphthalen-2-ol] | 15.2 nM | 212 nM |
| C#Cc1c(F)ccc2cc(O)cc(Oc3nc4c(N5CC6CCC(C5)NC6)nc(OC[C@@]56CCCN5C[C@H](F)C6)nc4s3)c12 (single isomer, unassigned) [Example 20, 4-[(7-[(1R*,5R*)-3,6-diazabicyclo[3.2.2]nonan-3-yl]-5-{[(2R,7aS)-2-fluorotetrahydro-1H-pyrrolizin-7a(5H)-yl]methoxy}[1,3]thiazolo[5,4-d]pyrimidin-2-yl)oxy]-5-ethynyl-6-fluoronaphthalen-2-ol] | 8.11 nM | 405 nM |
| C#Cc1c(F)ccc2cc(O)cc(Oc3nc4c(N5CC6CCC(C5)NC6)nc(OC[C@@]56CCCN5C[C@H](F)C6)nc4s3)c12 (single isomer, unassigned) [Example 21, 4-[(7-[(1S*,5S*)-3,6-diazabicyclo[3.2.2]nonan-3-yl]-5-{[(2R,7aS)-2-fluorotetrahydro-1H-pyrrolizin-7a(5H)-yl]methoxy}[1,3]thiazolo[5,4-d]pyrimidin-2-yl)oxy]-5-ethynyl-6-fluoronaphthalen-2-ol] | 219 nM | 182 nM |
| C#Cc1c(F)ccc2cc(O)cc(Oc3nc4c(N5C[C@H]6CC(F)[C@@H](C5)N6)nc(OC[C@@]56CCCN5C[C@H](F)C6)nc4s3)c12 (single isomer, unassigned) [Example 24, 5-Ethynyl-6-fluoro-4-[(7-[(1R*,5R*)-6-fluoro-3,8-diazabicyclo[3.2.1]octan-3-yl]-5-{[(2R,7aS)-2-fluorotetrahydro-1H-pyrrolizin-7a(5H)-yl]methoxy}[1,3]thiazolo[5,4-d]pyrimidin-2-yl)oxy]naphthalen-2-ol] | 26.7 nM | 24.1 nM |
| C#Cc1c(F)ccc2cc(O)cc(Oc3nc4c(N5C[C@H]6CC(F)[C@@H](C5)N6)nc(OC[C@@]56CCCN5C[C@H](F)C6)nc4s3)c12 (single isomer, unassigned) [Example 25, 5-Ethynyl-6-fluoro-4-[(7-[(1R*,5R*)-6-fluoro-3,8-diazabicyclo[3.2.1]octan-3-yl]-5-{[(2R,7aS)-2-fluorotetrahydro-1H-pyrrolizin-7a(5H)-yl]methoxy}[1,3]thiazolo[5,4-d]pyrimidin-2-yl)oxy]naphthalen-2-ol] | 18.7 nM | 69.9 nM |
| C#Cc1c(F)ccc2cc(O)cc(Oc3nc4c(N5C[C@H]6CC(F)[C@@H](C5)N6)nc(OC[C@@]56CCCN5C[C@H](F)C6)nc4s3)c12 (single isomer, unassigned) [Example 26, 5-Ethynyl-6-fluoro-4-[(7-[(1R*,5R*)-6-fluoro-3,8-diazabicyclo[3.2.1]octan-3-yl]-5-{[(2R,7aS)-2-fluorotetrahydro-1H-pyrrolizin-7a(5H)-yl]methoxy}[1,3]thiazolo[5,4-d]pyrimidin-2-yl)oxy]naphthalen-2-ol] | 26.3 nM | 25.9 nM |
| C#Cc1c(F)ccc2cc(O)cc(Oc3nc4c(N5C[C@H]6CC(F)[C@@H](C5)N6)nc(OC[C@@]56CCCN5C[C@H](F)C6)nc4s3)c12 (single isomer, unassigned) [Example 27, 5-Ethynyl-6-fluoro-4-[(7-[(1R*,5R*)-6-fluoro-3,8-diazabicyclo[3.2.1]octan-3-yl]-5-{[(2R,7aS)-2-fluorotetrahydro-1H-pyrrolizin-7a(5H)-yl]methoxy}[1,3]thiazolo[5,4-d]pyrimidin-2-yl)oxy]naphthalen-2-ol] | 23.7 nM | 91.2 nM |
| C#Cc1c(F)ccc2cc(O)cc(Oc3nc4c(N5CC6CCC(C5)N6)nc(OC[C@@]56CCCN5CC(F)C6)nc4s3)c12 (stereo in doubt) [Example 6, 4-{[7-(3,8-diazabicyclo[3.2.1]octan-3-yl)-5-{[(2R,7aS)-2-fluorotetrahydro-1H-pyrrolizin-7a(5H)-yl]methoxy}[1,3]thiazolo[5,4-d]pyrimidin-2-yl]oxy}-5-ethynyl-6-fluoronaphthalen-2-ol] | 1.86 nM and 2.18 nM | 32.8 nM and 33.1 nM |
| Oc1cc(Oc2nc3c(N4CC5CCC(C4)N5)nc(OCC45CCCN4CCC5)nc3s2)c2ccccc2c1 [Example 1, 4-{[7-(3,8-diazabicyclo[3.2.1]octan-3-yl)-5-(tetrahydro-1H-pyrrolizin-7a(5H)-ylmethoxy)[1,3]thiazolo[5,4-d]pyrimidin-2-yl]oxy}-2-naphthol] | 1000 nM | ≥ 20000 nM |
| C#Cc1cccc2cc(O)cc(Oc3nc4c(N5CC6CCC(C5)N6)nc(OCC56CCCN5CCC6)nc4s3)c12 [Example 2, 4-{[7-(3,8-diazabicyclo[3.2.1]octan-3-yl)-5-(tetrahydro-1H-pyrrolizin-7a(5H)-ylmethoxy)[1,3]thiazolo[5,4-d]pyrimidin-2-yl]oxy}-5-ethynyl-2-naphthol] | 5.55 nM | 126 nM |
| Oc1cc(Oc2nc3c(N4C[C@H]5CC[C@@H](C4)N5)nc(OCC45CCCN4CCC5)nc3s2)c2c(F)cccc2c1 [Example 3, 4-({7-[(1R,5S)-3,8-diazabicyclo[3.2.1]octan-3-yl]-5-[(tetrahydro-1H-pyrrolizin-7a(5H)-yl)methoxy][1,3]thiazolo[5,4-d]pyrimidin-2-yl}oxy)-5-fluoronaphthalen-2-ol] | 325 nM | 8140 nM |
| Cc1cccc2cc(O)cc(Oc3nc4c(N5CC6CCC(C5)N6)nc(OCC56CCCN5CCC6)nc4s3)c12 [Example 4, 4-({7-(3,8-diazabicyclo[3.2.1]octan-3-yl)-5-[(tetrahydro-1H-pyrrolizin-7a(5H)-yl)methoxy][1,3]thiazolo[5,4-d]pyrimidin-2-yl}oxy)-5-methylnaphthalen-2-ol] | 79.8 nM | 1550 nM |
| C#Cc1c(F)ccc2cc(O)cc(Oc3nc4c(N5C[C@H]6CC[C@@H](C5)N6)nc(OCC56CCCN5CCC6)nc4s3)c12 [Example 5, 4-({7-[(1R,5S)-3,8-diazabicyclo[3.2.1]octan-3-yl]-5-[(tetrahydro-1H-pyrrolizin-7a(5H)-yl)methoxy][1,3]thiazolo[5,4-d]pyrimidin-2-yl}oxy)-5-ethynyl-6-fluoronaphthalen-2-ol] | 3.79 nM | 69.1 nM |
| Oc1cc(Nc2nc3c(N4CC5CCC(C4)N5)nc(OCC45CCCN4CCC5)nc3s2)c2ccccc2c1 [Example 7, 4-({7-(3,8-diazabicyclo[3.2.1]octan-3-yl)-5-[(tetrahydro-1H-pyrrolizin-7a(5H)-yl)methoxy][1,3]thiazolo[5,4-d]pyrimidin-2-yl}amino)naphthalen-2-ol] | 3360 nM | ≥ 20000 nM |
